Patent US20060281771A1, “SYNERGISTIC MODULATION OF FLT3 KINASE USING AMINOQUINOLINE AND AMINOQUINAZOLINE KINASE MODULATORS” (priority 2005, published 2006)
pIC50: −log10 of the molar value.

Key:
[1] = target: T1, isolated kinase domain of the human FLT3 receptor (a.a. 571-993) (Homo sapiens, UniProt P36888); assay: FLT3 fluorescence polarization kinase assay; assay type: biochemical
T1 construct: human FLT3 receptor (a.a. 571-993)
T1 sequence (P36888 571-993): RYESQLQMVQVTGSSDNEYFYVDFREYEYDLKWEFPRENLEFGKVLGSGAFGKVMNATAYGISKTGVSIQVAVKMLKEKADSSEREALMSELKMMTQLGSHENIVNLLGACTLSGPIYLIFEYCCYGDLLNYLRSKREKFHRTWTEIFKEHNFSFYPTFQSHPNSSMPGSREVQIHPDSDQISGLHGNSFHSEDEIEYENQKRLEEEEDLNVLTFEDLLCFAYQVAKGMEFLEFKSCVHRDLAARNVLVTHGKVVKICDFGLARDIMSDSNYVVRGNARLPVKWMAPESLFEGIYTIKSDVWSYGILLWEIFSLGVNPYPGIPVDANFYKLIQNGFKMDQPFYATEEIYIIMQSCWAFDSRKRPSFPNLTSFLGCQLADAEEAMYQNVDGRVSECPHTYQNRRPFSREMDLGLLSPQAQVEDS
Source text: The FLT3 FP assay utilizes the fluorescein-labeled phosphopeptide and the anti-phosphotyrosine antibody included in the Panvera Phospho-Tyrosine Kinase Kit (Green) supplied by Invitrogen. When FLT3 phosphorylates polyGlu4Tyr, the fluorescein-labeled phosphopeptide is displaced from the anti-phosphotyrosine antibody by the phosphorylated poly Glu4Tyr, thus decreasing the FP value. […] The kinase reaction is stopped with the addition of EDTA. The fluorescein-labeled phosphopeptide and the anti-phosphotyrosine antibody are added and incubated for 30 minutes at room temperature.
All data points are an average of triplicate samples. Inhibition and IC50 data analysis was done with GraphPad Prism using a non-linear regression fit with a multiparamater, sigmoidal dose-response (variable slope) equation.

[2] = target: T2, wild-type FLT3 phosphorylation in Baf3 FLT3 cells (Homo sapiens, UniProt P36888); assay: Cell-based FLT3 receptor ELISA; settings: FLT ligand-induced FLT3 phosphorylation
T2 construct: host or cells: Baf3 (murine B cell lymphoma line)
T2 sequence (P36888 27-993): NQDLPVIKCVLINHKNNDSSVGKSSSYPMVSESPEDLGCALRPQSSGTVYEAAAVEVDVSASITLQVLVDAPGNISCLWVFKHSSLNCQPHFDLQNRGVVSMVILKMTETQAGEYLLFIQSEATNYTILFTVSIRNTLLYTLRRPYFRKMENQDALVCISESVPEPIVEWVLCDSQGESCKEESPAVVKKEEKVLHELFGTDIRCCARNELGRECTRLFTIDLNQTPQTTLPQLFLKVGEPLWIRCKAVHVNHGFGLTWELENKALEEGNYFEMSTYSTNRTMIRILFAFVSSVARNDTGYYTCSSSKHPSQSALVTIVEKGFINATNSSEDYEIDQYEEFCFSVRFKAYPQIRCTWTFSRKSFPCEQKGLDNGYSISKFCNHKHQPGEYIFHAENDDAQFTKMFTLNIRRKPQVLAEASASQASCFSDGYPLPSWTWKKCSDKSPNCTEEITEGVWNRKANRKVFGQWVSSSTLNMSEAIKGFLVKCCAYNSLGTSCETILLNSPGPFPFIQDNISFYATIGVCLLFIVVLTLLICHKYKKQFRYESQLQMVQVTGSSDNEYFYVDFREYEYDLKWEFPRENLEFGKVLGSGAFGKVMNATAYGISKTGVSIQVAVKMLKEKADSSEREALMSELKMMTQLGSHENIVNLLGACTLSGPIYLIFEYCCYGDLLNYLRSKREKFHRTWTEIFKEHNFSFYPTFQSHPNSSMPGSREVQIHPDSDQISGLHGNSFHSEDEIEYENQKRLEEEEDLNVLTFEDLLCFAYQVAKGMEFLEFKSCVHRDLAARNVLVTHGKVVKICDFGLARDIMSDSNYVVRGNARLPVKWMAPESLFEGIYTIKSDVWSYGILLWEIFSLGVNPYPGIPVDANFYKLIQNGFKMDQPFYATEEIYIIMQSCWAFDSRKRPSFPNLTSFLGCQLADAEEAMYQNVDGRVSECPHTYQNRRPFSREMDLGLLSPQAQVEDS
Description: Specific cellular inhibition of FLT ligand-induced wild-type FLT3 phosphorylation was measured in the following manner: Baf3 FLT3 cells overexpressing the FLT3 receptor were obtained from Dr. Michael Heinrich (Oregon Health and Sciences University). The Baf3 FLT3 cell lines were created by stable transfection of parental Baf3 cells (a murine B cell lymphoma line dependent on the cytokine IL-3 for growth) with wild-type FLT3. Cells were selected for their ability to grow in the absence of IL-3 and in the presence of FLT3 ligand.
Baf3 cells were maintained in RPMI 1640 with 10% FBS, penn/strep and 10 ng/ml FLT ligand at 37° C., 5% CO2. To measure direct inhibition of the wild-type FLT3 receptor activity and phosphorylation a sandwich ELISA method was developed similar to those developed for other RTKs (see Sadick, M D, Sliwkowski, M X, Nuijens, A, Bald, L, Chiang, N, Lofgren, J A, Wong W L T. Analysis of Heregulin-Induced ErbB2 Phosphorylation with a High-Throughput Kinase Receptor Activation Enzyme-Linked Immunsorbent Assay, Analytical Biochemistry. 1996; 235:207-214 and Baumann C A, Zeng L, Donatelli R R, Maroney A C. Development of a quantitative, high-throughput cell-based enzyme-linked immunosorbent assay for detection of colony-stimulating factor-1 receptor tyrosine kinase inhibitors. J Biochem Biophys Methods. 2004; 60:69-79.). 200 μL of Baf3FLT3 cells (1×10^6/mL) were plated in 96 well dishes in RPMI 1640 with 0.5% serum and 0.01 ng/mL IL-3 for 16 hours prior to 1 hour compound or DMSO vehicle incubation. Cells were treated with 100 ng/mL Flt ligand (R&D Systems Cat# 308-FK) for 10 min. at 37° C. Cells were pelleted, washed and lysed in 100 ul lysis buffer (50 mM Hepes, 150 mM NaCl, 10% Glycerol, 1% Triton-X-100, 10 mM NaF, 1 mM EDTA, 1.5 mM MgCl2, 10 mM NaPyrophosphate) supplemented with phosphatase (Sigma Cat# P2850) and protease inhibitors (Sigma Cat #P8340). Lysates were cleared by centrifugation at 1000×g for 5 minutes at 4° C. Cell lysates were transferred to white wall 96 well microtiter (Costar #9018) plates coated with 50 ng/well anti-FLT3 antibody (Santa Cruz Cat# sc-480) and blocked with SeaBlock reagent (Pierce Cat#37527). Lysates were incubated at 4° C. for 2 hours. Plates were washed 3× with 200 ul/well PBS/0.1% Triton-X-100. Plates were then incubated with 1:8000 dilution of HRP-conjugated anti-phosphotyrosine antibody (Clone 4G10, Upstate Biotechnology Cat#16-105) for 1 hour at room temperature. Plates were washed 3× with 200 ul/well PBS/0.1% Triton-X-100. Signal detection with Super Signal Pico reagent (Pierce Cat#37070) was done according to manufacturer's instruction with a Berthold microplate luminometer. All data points are an average of triplicate samples. […] Inhibition and IC50 data analysis was done with GraphPad Prism using a non-linear regression fit with a multiparamater, sigmoidal dose-response (variable slope) equation.

Row | SMILES | pIC50 [1] | pIC50 [2]
1 | COc1cc2ncnc(N3CCC(OC(=O)Nc4ccc(C(C)C)cc4)CC3)c2cc1OC [Compound 1, (4-Isopropyl-phenyl)-carbamic acid 1-(6,7-dimethoxy-quinazolin-4-yl)-piperidin-4-yl ester] | 8.22 | 7.80
2 | COc1cc2ncnc(N3CCC(OC(=O)Nc4ccc(C(C)C)cc4)C3)c2cc1OC (stereo not shown) [Compound 2, (4-Isopropyl-phenyl)-carbamic acid 1-(6,7-dimethoxy-quinazolin-4-yl)-pyrrolidin-3-yl ester] | 8.15 | 7.19
3 | COc1cc2ncnc(N3CCC(OC(=O)Nc4ccc(OC(C)C)cc4)CC3)c2cc1OC [Compound 3, (4-Isopropoxy-phenyl)-carbamic acid 1-(6,7-dimethoxy-quinazolin-4-yl)-piperidin-4-yl ester] | 8.10 | 6.93
4 | COc1cc2ncnc(N3CCCC(COC(=O)Nc4ccc(C(C)C)cc4)C3)c2cc1OC (stereo not shown) [Compound 4] | 7.96 | 8.22
5 | COc1cc2ncnc(N3CCC(CC(=O)Nc4ccc(C(C)C)cc4)CC3)c2cc1OC [Compound 5, 2-[1-(6,7-Dimethoxy-quinazolin-4-yl)-piperidin-4-yl]-N-(4-isopropyl-phenyl)-acetamide] | 7.92 | 8.22
6 | COc1cc2ncnc(N3CCC(CC(=O)Nc4ccc(C(C)C)cc4)C3)c2cc1OC (stereo not shown) [Compound 6, 2-[11-(6,7-Dimethoxy-quinazolin-4-yl)-pyrrolidin-3-yl]-N-(4-isopropyl-phenyl)-acetamide] | 7.85 | 7.34
7 | COc1cc2ncnc(N3CCC(NC(=O)Nc4ccc(C(C)C)cc4)C3)c2cc1OC (stereo not shown) [Compound 7, 1-[1-(6,7-Dimethoxy-quinazolin-4-yl)-pyrrolidin-3-yl]-3-(4-isopropyl-phenyl)-urea] | 7.80 | 6.85
8 | COc1cc2ncnc(N3CCC(NC(=O)Nc4ccc(OC(C)C)cc4)C3)c2cc1OC (stereo not shown) [Compound 8, 1-[1-(6,7-Dimethoxy-quinazolin-4-yl)-pyrrolidin-3-yl]-3-(4-isopropoxy-phenyl)-urea] | 7.64 | 6.44
9 | COc1cc2ncnc(N3CCCC3COC(=O)Nc3ccc(C(C)C)cc3)c2cc1OC (stereo not shown) [Compound 9] | 7.60 | 7.57
10 | COc1cc2ncnc(N3CCC(OC(=O)Nc4ccc(OC5CCC5)nc4)C3)c2cc1OC (stereo not shown) [Compound 12, (6-Cyclobutoxy-pyridin-3-yl)-carbamic acid 1-(6,7-dimethoxy-quinazolin-4-yl)-pyrrolidin-3-yl ester] | 7.46 | 7.96
11 | COc1cc2ncnc(N3CCC(C(=O)Nc4ccc(C(C)C)cc4)CC3)c2cc1OC [Compound 13, 1-(6,7-Dimethoxy-quinazolin-4-yl)-piperidine-4-carboxylic acid (4-isopropyl-phenyl)-amide] | 7.43 | 7.05
12 | CC(C)c1ccc(NC(=O)OC2CCN(c3ncnc4ccc(C#CCO)cc34)C2)cc1 (stereo not shown) [Compound 14, (4-Isopropyl-phenyl)-carbamic acid 1-[6-(3-hydroxy-prop-1-ynyl)-quinazolin-4-yl]-pyrrolidin-3-yl ester] | 7.43 | 8.40
13 | COc1cc2ncnc(N3CCC(OC(=O)Nc4ccc(OC(C)C)cc4)C3)c2cc1OC (stereo not shown) [Compound 15, (4-Isopropoxy-phenyl)-carbamic acid 1-(6,7-dimethoxy-quinazolin-4-yl)-pyrrolidin-3-yl ester] | 7.38 | 6.49
14 | CC(C)c1ccc(NC(=O)NC2CCN(c3ncnc4ccccc34)C2)cc1 (stereo not shown) [Compound 16, 1-(4-Isopropyl-phenyl)-3-(1-quinazolin-4-yl-pyrrolidin-3-yl)urea] | 7.35 | 6.62
15 | CCN(CC)CC#Cc1ccc2ncnc(N3CCC(OC(=O)Nc4ccc(C(C)C)cc4)C3)c2c1 (stereo not shown) [Compound 17, (4-Isopropyl-phenyl)-3-carbamic acid 1-[6-(3-diethylamino-prop-1-ynyl)-quinazolin-4-yl]-pyrrolidin-3-yl ester] | 7.20 | 6.79
16 | COc1cc2ncnc(N3CCC(CNC(=O)Nc4ccc(C(C)C)cc4)CC3)c2cc1OC [Compound 18, 1-[1-(6,7-Dimethoxy-quinazolin-4-yl)-piperidin-4-ylmethyl]-3-(4-isopropyl-phenyl)-urea] | 7.18 | 7.31
17 | COc1cc2ncnc(N3CCC(N(C)C(=O)Nc4ccc(C(C)C)cc4)C3)c2cc1OC (stereo not shown) [Compound 19, 1-[1-(6,7-Dimethoxy-quinazolin-4-yl)-pyrrolidin-3-yl]-3-(4-isopropyl-phenyl)-1-methyl-urea] | 7.17 | 6.68
18 | CC(C)c1ccc(NC(=O)OC2CCN(c3ncnc4ccc(I)cc34)C2)cc1 (stereo not shown) [Compound 20, (4-Isopropyl-phenyl)-carbamic acid 1-(6-iodo-quinazolin-4-yl)-pyrrolidin-3-yl ester] | 7.02 | 7.37
19 | COc1cc2ncnc(N3CCC(NC(=O)Cc4ccc(C(C)C)cc4)CC3)c2cc1OC [Compound 21, N-[1-(6,7-Dimethoxy-quinazolin-4-yl)-piperidin-4-yl]-2-(4-isopropyl-phenyl)-acetamide] | 6.82 | 7.20
20 | COc1cc2ncnc(N3CCC(C(=O)Nc4ccc(OC(C)C)cc4)CC3)c2cc1OC [Compound 23, 1-(6,7-Dimethoxy-quinazolin-4-yl)-piperidine-4-carboxylic acid (4-isopropoxy-phenyl)-amide] | 6.73 | 6.76
